# In US9617225B2 (VIROSTATICS SRL, priority 2012, dated 2017):
# Read-outs that look alike come from different tables or passages of the source.
# How the values were obtained:
# Primary T cells [1] = assay: Antiproliferative Activity (AP), mitotic index by flow cytometry; assay type: cell-based; settings: T-cell, read-out: AP50 (μM)
# Procedure: Antiproliferative Activity (AP)
# Primary T cells are cultured and exposed to different concentrations of the test compounds. Cell proliferation is analysed by measuring mitotic index (ie the number of cell divisions a population of cells undergoes) through flow cytometry based techniques. Mitotic index is expressed as percentage of untreated control. Inhibition of cell proliferation (AP) is then calculated (AP=100 minus % mitotic index compared to control, AP of control=0%). Inhibitory concentration 50% for antiproliferative capacity (AP50) is calculated.
# [2] = test system: laboratory strain of HIV-1; assay: Antiviral Activity Against HIV (AV), p24 in infected activated primary T cells; assay type: cell-based; settings: for antiviral and antiproliferative activity and cytotoxicity profile: summary in words
# Procedure: Antiviral Activity Against HIV (AV)
# Activated primary T cells are infected with a laboratory strain of HIV-1, then cultured and exposed to different concentrations of the test compounds. HIV replication is analysed by measuring the viral protein p24 and expressed as percentage of untreated control. Inhibition of viral replication (AV) is then calculated (AV=100 minus the % p24 compared to control, AV of control=0%). Inhibitory concentration 50% for antiviral activity (AV50) is calculated.
# Primary T cells [3] = assay: Cytotoxicity, viability by flow cytometry; assay type: cell-based
# Procedure: Primary T cells are cultured and treated with different concentrations of the test compound. Viability is analysed by measuring through flow cytometry based techniques the percentage of viable cells, compared to untreated control=100%).
# [4] = target: human CDK9/CyclinT kinase complex (Homo sapiens (Human), UniProt P50750); assay: In Vitro CDK9/CyclinT Assay (IMAP fluorescent polarization); assay type: biochemical
# Sequence of human CDK9/CyclinT kinase complex (P50750 whole entry): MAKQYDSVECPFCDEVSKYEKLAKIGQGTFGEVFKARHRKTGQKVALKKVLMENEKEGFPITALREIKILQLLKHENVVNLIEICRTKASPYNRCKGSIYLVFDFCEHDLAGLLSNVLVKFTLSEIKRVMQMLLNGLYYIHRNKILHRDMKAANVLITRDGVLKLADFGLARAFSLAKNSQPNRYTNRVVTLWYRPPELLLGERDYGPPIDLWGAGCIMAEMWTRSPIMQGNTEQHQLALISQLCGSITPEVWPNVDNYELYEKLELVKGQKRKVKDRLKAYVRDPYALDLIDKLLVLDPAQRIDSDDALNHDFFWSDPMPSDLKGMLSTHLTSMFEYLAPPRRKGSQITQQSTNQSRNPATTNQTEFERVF
# Sequence of human CDK9/CyclinT kinase complex (O60563 whole entry partner): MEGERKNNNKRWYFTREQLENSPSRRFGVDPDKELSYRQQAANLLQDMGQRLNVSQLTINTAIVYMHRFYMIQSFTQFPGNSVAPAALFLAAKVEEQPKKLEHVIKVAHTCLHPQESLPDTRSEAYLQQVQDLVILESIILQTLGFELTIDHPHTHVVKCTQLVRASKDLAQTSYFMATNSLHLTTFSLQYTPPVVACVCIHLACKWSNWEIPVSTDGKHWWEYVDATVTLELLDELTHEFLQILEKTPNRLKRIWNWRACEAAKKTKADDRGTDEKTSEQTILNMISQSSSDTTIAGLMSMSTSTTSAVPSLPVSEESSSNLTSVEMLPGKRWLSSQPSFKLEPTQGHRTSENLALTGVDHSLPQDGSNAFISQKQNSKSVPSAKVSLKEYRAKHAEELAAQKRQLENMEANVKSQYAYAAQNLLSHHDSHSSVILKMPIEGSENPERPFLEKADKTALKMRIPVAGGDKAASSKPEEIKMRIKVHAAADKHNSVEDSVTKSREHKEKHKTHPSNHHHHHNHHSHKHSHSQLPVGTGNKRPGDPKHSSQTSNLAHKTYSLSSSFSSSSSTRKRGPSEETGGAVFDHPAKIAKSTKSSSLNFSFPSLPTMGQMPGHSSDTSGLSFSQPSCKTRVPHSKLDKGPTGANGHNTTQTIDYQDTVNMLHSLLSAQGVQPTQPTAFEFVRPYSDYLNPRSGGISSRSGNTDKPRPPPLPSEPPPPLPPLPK
# Summary of the method: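 Phosphorylation of 400 nM TAMRA-Rbtide (15-mer retinoblastoma-derived peptide) by 5 nM CDK9/CyclinT with 12 μM ATP (=Kmapp) in 20 mM MOPS pH 7, 1 mM DTT, 10 mM MgCl2, 0.01% Tween 20. Reaction run 1 hour at room temperature, stopped with IMAP beads; read by fluorescence polarization.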
SMILES,IC50 (Primary T cells [1]) [µM],"IC50 ([2]; Human immunodeficiency virus 1, T-cell, read-out: AV50 (μM)) [µM]",TD50 (Primary T cells [3]) [µM],IC50 ([4]; Table 1) [µM],antiviral and antiproliferative activity and cytotoxicity profile [2],"TD50 (Primary T cells [3]; Table 4, toxic dose 50%, viable cells) [µM]",IC50 [4] [µM],"IC50 ([2]; read-out: AV50, Table 5) [µM]",IC50 ([4]; Table 5) [µM]
"CNCc1cc(Nc2cc(-c3ccccc3OC)ncn2)ccc1OC [Example 37, N-(4-Methoxy-3-((methylamino)methyl)phenyl)-6-(2-methoxyphenyl)pyrimidin-4-amine]",2,> 1.5,2,< 0.1,–,–,–,–,–
"COc1ccccc1-c1cc(Nc2ccc(N(C)C)cc2)ncn1 [Example 5, N^1-(6-(2-methoxyphenyl)pyrimidin-4-yl)-N^4,N^4-dimethylbenzene-1,4-diamine]",–,–,–,< 1,good antiviral and antiproliferative activity and a good cytotoxicity profile,>10,–,–,–
"CCOc1ccccc1-c1cc(Nc2ccc(OC)c(C(N)=O)c2)ncn1 [Example 129, 5-[6-(2-Ethoxy-phenyl)-pyrimidin-4-ylamino]-2-methoxy-benzamide]",–,–,5,–,good antiviral and antiproliferative activity and a good cytotoxicity profile,–,< 0.1,–,–
"COc1cc(Nc2cc(-c3ccccc3OC)ncn2)ccc1C(N)=O [Example 136, 2-Methoxy-4-[6-(2-methoxy-phenyl)-pyrimidin-4-ylamino]-benzamide]",–,–,>2,< 1,–,–,–,> 2,< 1
"COc1ccc(Nc2cc(-c3cc(F)ccc3OC)ncn2)cc1N [Example 75, N^1-[6-(5-Fluoro-2-methoxy-phenyl)-pyrimidin-4-yl]-4-methoxy-benzene-1,3-diamine]",–,–,10,< 1,good antiviral and antiproliferative activity and a good cytotoxicity profile,–,–,–,–
"CCOc1ccc(F)cc1-c1cc(Nc2cc(F)c(OC)c(C(N)=O)c2)ncn1 [Example 142, 5-[6-(2-Ethoxy-5-fluoro-phenyl)-pyrimidin-4-ylamino]-3-fluoro-2-methoxy-benzamide]",–,–,>20,–,good antiviral and antiproliferative activity and a good cytotoxicity profile,–,< 1,–,–
"CNC(=O)c1ccc(Nc2cc(-c3ccccc3OC)ncn2)cc1OC [Example 134, 2-Methoxy-4-[6-(2-methoxy-phenyl)-pyrimidin-4-ylamino]-N-methyl-benzamide]",–,–,>10,< 1,–,–,–,> 10,< 1
"COc1ccc(Nc2cc(-c3ccccc3OC(C)C)ncn2)cc1N [Example 79, N^1-[6-(2-Isopropoxy-phenyl)-pyrimidin-4-yl]-4-methoxy-benzene-1,3-diamine]",–,–,15,< 1,good antiviral and antiproliferative activity and a good cytotoxicity profile,–,–,–,–
"CCOc1cc(F)ccc1-c1cc(Nc2cc(C(N)=O)c(OC)cc2F)ncn1 [Example 147, 5-[6-(2-Ethoxy-4-fluoro-phenyl)-pyrimidin-4-ylamino]-4-fluoro-2-methoxy-benzamide]",–,–,15,–,good antiviral and antiproliferative activity and a good cytotoxicity profile,–,< 1,–,–
"COc1ccc(Nc2cc(-c3ccccc3OC)ncn2)cc1Cn1cnc2ccccc21 [Example 31, N-(3-((1H-Benzo[d]imidazol-1-yl)methyl)-4-methoxyphenyl)-6-(2-methoxyphenyl)pyrimidin-4-amine]",–,–,1.8,–,good antiviral and antiproliferative activity and a good cytotoxicity profile,–,< 0.1,–,–
"CCOc1ccccc1-c1cc(Nc2ccc(OC)c(N)c2)ncn1 [Example 62, N^1-[6-(2-Ethoxy-phenyl)-pyrimidin-4-yl]-4-methoxy-benzene-1,3-diamine]",–,–,4,< 1,good antiviral and antiproliferative activity and a good cytotoxicity profile,–,–,–,–
